Structures are written as SMILES.

Experiment [1] has as its system TNFα-induced IL-8 production. Put plainly: TNFα-induced IL-8 production by human monocytes. It counts as cell-based. Conditions: TNFα ~1 ng/ml, 18 hours. On the procedure: Venous blood from healthy donors was collected by venupuncture into sodium/heparin containing tubes (BD Biosciences). Peripheral blood mononuclear cells (PBMC) were isolated by density gradient centrifugation with Ficoll Paque (Amersham Biosciences). Briefly, 10 mL of blood was diluted 1:1 (v/v) with RPMI 1640 (Gibco) and carefully layered onto 20 mL Ficoll Paque. Cells were spun down for 30 minutes (min) at 470 g, the PBMC collected, washed once in RPMI 1640 and any remaining contaminating erythrocytes lysed in erythrocyte lysis buffer (1 g/L KHCO3, 8.3 g/L NH4Cl, 0.0372 g/L EDTA). Isolation of monocytes from the PBMC was performed using CD14+ Magnetic MicroBeads (Miltenyi Biotec) according to the manufacturer's instructions. Briefly, PBMC were resuspended in Dulbecco's modified Eagle's medium containing 5% BSA (Sigma) and 2 mM EDTA (Sigma) at 1×10^7 cells/ml. […] of CD14 MicroBeads per 10^7 total cells were incubated for 15 min at room temperature. The magnetic separation was performed using a LS column (Miltenyi Biotec). […]
Human IL-8 was measured in the cell culture supernatants using enzyme-linked immunosorbent assay (ELISA) kits from R&D Systems Ltd. according to the manufacturer's instructions. […] Plates were read at a wavelength of 630 nm with correction at 470 nm.

The next experiment deals with TNFα (Homo sapiens, UniProt P01375). Put plainly: Surface plasmon resonance kinetics of compound binding to immobilised TNFα. On the procedure: Surface plasmon resonance was used to measure the association rate, the dissociation rate and the affinity of the compounds of formulae (3) and (15) for TNFα (FIGS. 12A and B). For the purpose of this study a Biacore T100/T200 was used.
Sequence of TNFα (P01375 77-233 limits assumed): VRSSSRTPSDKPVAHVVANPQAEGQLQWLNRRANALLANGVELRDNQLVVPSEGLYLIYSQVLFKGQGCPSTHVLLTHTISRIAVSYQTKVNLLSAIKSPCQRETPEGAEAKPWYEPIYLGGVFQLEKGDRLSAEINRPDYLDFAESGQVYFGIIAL
TNFα was immobilised at pH5 to a level of 5-8 KRU onto a CMS sensor in HBS-P buffer (10 mM HEPES pH 7.4, 0.15 M NaCl, 0.005% Surfactant P20, BIAcore, GE Healthcare). The TNFα was then equilibrated in HBS-P with 5% DMSO for at least 5 hours. The samples were diluted from 10 mM stocks into DMSO matched buffer and left to solubilise for at least 5 hours. The flow rate was […].
This assay was performed by adding 4 or 5 concentrations of compound starting from a highest concentration of 25 μM for compound of formula (3) and 1 μM for compound of formula (15) and then serially diluting this sample. Background subtraction binding curves were analysed using the BIAevaluation software following standard procedures. Binding, affinity and kinetic parameters were determined using Biacore software. The kinetic data were fitted using the levenberg marquardt algorithm.

The subject of experiment [2] is hTNFα-induced neutrophil recruitment. Kind of experiment: Neutrophil recruitment in mice, compound given orally before hTNFα i.p. The experiment is classed as in vivo, Balb/c mice. On the procedure: In a further experiment, mice were treated with hTNFα (0.3 μg/ml) and the compound of formula (3) was administered orally (p.o.).
The compound of formula (3) was made into a suspension in 1% methylcellulose vehicle using a covaris machine.
An anti-human TNFα monoclonal antibody (anti-hTNFα, UCB) was also utilised as a positive control in this study.
Ten male Balb/c mice were used per group except in the group that received anti-hTNFα for which 4 mice were used.
Mice received 100 μL of either vehicle (1% methylcellulose) or compound of formula (3) at 30 mg/kg or 100 mg/kg p.o. 30 minutes (t=−30) or anti-hTNFα at 10 mg/kg i.p. 5 minutes (t=−5) prior to being injected with human TNFα.
All mice were killed by cervical dislocation two hours post-injection of hTNFα (t=2 h) and the peritoneal cavity was lavaged and neutrophil numbers measured as described above.

The subject of experiment [3] is TNFα-induced NF-κB activation. Kind of experiment: HEK-Blue CD40L NF-κB reporter gene assay, TNFα stimulus. It counts as cell-based. As to conditions: TNFα 0.5 ng/mL. On the procedure: (§1) Stimulation of HEK-293 cells by TNF-alpha leads to activation of the NF-kB pathway. The reporter cell line used to determine TNF alpha activity was purchased from Invivogen. HEK-Blue™ CD40L, is a stable transfectant expressing SEAP (secreted alkaline phosphatase) under the control of the IFN-beta minimal promoter fused to 5 NF-kB binding sites. Secretion of SEAP by these cells is stimulated in a concentration dependent manner by TNF-alpha (0.5 ng/ml), IL-1-beta (0.5 ng/ml) and an activating anti-human TNFR1 antibody (300 ng/ml).
Compounds were diluted from 10 mM DMSO stocks (final assay concentration 0.3%) to generate a 10 point 3 fold serial dilution curve (30,000 nM to 2 nM final concentration). They were mixed with stimulating ligand for 1 hour in a 384 well microtitre plate. […] SEAP activity was determined in the supernatant using the colorimetric substrate Quanti-Blue™ (Invivogen).
(§2) Percentage inhibitions for compound dilutions were calculated between a DMSO control and maximum inhibition (by excess control compound) and an IC50 calculated using xlfit (4 parameter logistic model) in Activity Base.
C87 was preincubated with TNFα for 1 hour prior to the addition to HEK-293 cells stably transfected with SEAP under the control of NFκB. […] The assay was incubated overnight before inhibition was measured compared to 100% blocking by a control compound. […]

The next experiment relates to IL-1β. Put plainly: HEK-Blue NF-κB reporter gene counterscreen, IL-1β stimulus. It counts as cell-based. Conditions: IL-1β 0.5 ng/mL. On the procedure:
as §1
(§3) Compounds were diluted from 10 mM DMSO stocks (final assay concentration 0.3%) to generate a 10 point 3 fold serial dilution curve (30,000 nM to 2 nM final concentration). They were mixed with stimulating ligand for 1 hour in a 384 well microtitre plate. Freshly thawed and washed cells were added to the compound/stimulus mixture and further incubated for 18 hours. SEAP activity was determined in the supernatant using the colorimetric substrate Quanti-Blue™ (Invivogen).
as §2
(§4) The specific activity of the compound of formula (15) against the TNF-alpha response was compared to that seen with the counterscreens (IL-1beta and anti-human TNFR1 antibody).

In the next experiment the test system is TNF-R1. Kind of experiment: HEK-Blue NF-κB reporter gene counterscreen, activating TNF-R1 antibody stimulus. It counts as cell-based, human. Conditions: antibody 300 ng/mL. On the procedure: as §1, §3, §2, §4
(In general: In a reporter assay the amount or activity of a reporter protein is the signal.)

As for `Cc1ccc(C)c(Cn2c(C(O)c3ccncc3)nc3ccccc32)c1` (centres unmarked) [Compound 3], the IC50 in experiment [1] came out at 0.454 µM. At TNFα, the “dissociation rate constant (koff)” value was found to be 9.46 e^−5 s^−1 and the kon stood at 2.668 e^3 M^−1 s^−1. Besides, the “reduction of TNFα stimulated neutrophil recruitment into the peritoneal cavity” value in experiment [2] (30 mg/kg p.o.) came out at 49%. For the same molecule, in experiment [2] (100 mg/kg p.o.), the “reduction of TNFα stimulated neutrophil recruitment into the peritoneal cavity” value came to 79%.

Molecule `Cc1ccc(C)c(Cn2c(C(O)c3ccncc3)nc3ccc(-c4cnn(C)c4)cc32)c1` (centres unmarked) [Compound 15] had an IC50 in experiment [3] of 0.113 µM. Further, the “inhibition of activation of NF-κB by IL-1β” value in the experiment with IL-1β was “did not inhibit”. The “inhibition of activation of NF-κB by activating TNF-R1 antibody” value with TNF-R1 is on record as “did not inhibit”.

The term IC50 denotes the midpoint of a concentration-inhibition curve.

The values are drawn from US11674967B2, “Method of identifying potential inhibitors of APO TNFα trimers” (UCB BIOPHARMA SRL, priority 2015, dated 2023).
